Reference: ChEMBL document CHEMBL1201862, “PubChem BioAssay data set” (2004)
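1) Cells in 96-well plates. 2) Compound, 48 h, 5 concentrations. 3) Linear interpolation between surrounding doses. 4) Unreached endpoint = highest concentration. At the GI50, growth is halved.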 Active and inactive are the calls of the source. Cut-off read from the data, not from the text of the source: active = GI50 up to about 1.1 µM and inactive = higher. Non-standard residues stand in square brackets, D forms with d. Residues, ends and D or L forms follow the SMILES beside them. ξ: configuration not given here. *: point of attachment. X18 = COC1=CC(=O)N(C(=O)C(O*)C(C)C)C1Cc1ccccc1; ξNMe2Val = CC(C)C(C(=O)*)N(C)C; NMeV = CN[CH](C(=O)O)C(C)C

Assays:
Test in all cases: inhibition of tumour cell growth, NCI panel, 48 h
UACC-62 = test system: UACC-62
EKVX = test system: EKVX
SK-MEL-5 = test system: SK-MEL-5
CAKI-1 = test system: CAKI-1
HCT-15 = test system: HCT-15
OVCAR-8 = test system: OVCAR-8
PC-3 = test system: PC-3
LOX IMVI = test system: LOX IMVI
HOP-62 = test system: HOP-62
SNB-75 = test system: SNB-75
HOP-92 = test system: HOP-92
OVCAR-5 = test system: OVCAR-5
Malme-3M = test system: Malme-3M
SF-539 = test system: SF-539
HCT-116 = test system: HCT-116
CCRF-CEM = test system: CCRF-CEM
SK-MEL-2 = test system: SK-MEL-2
NCI-H460 = test system: NCI-H460
SF-268 = test system: SF-268
OVCAR-3 = test system: OVCAR-3

Row | SMILES | GI50 (UACC-62) | GI50 (EKVX) | GI50 (SK-MEL-5) | GI50 (CAKI-1) | GI50 (HCT-15) [µM] | GI50 (OVCAR-8) | GI50 (PC-3) | GI50 (LOX IMVI) | GI50 (HOP-62) | GI50 (SNB-75) | GI50 (HOP-92) | GI50 (OVCAR-5) | GI50 (Malme-3M) | GI50 (SF-539) | GI50 (HCT-116) | GI50 (CCRF-CEM) | GI50 (SK-MEL-2) | GI50 (NCI-H460) | GI50 (SF-268) | GI50 (OVCAR-3)
1 | O=C1C[C@@H](c2ccccc2)O[C@@H](c2ccccc2)C1 | > 100 µM (inactive) | > 100 µM (inactive) | > 100 µM (inactive) | > 100 µM (inactive) | > 100 | > 100 µM (inactive) | > 100 µM (inactive) | > 100 µM (inactive) | > 100 µM (inactive) | > 100 µM (inactive) | > 100 µM (inactive) | > 100 µM (inactive) | > 100 µM (inactive) | > 100 µM (inactive) | > 100 µM (inactive) | > 100 µM (inactive) | > 100 µM (inactive) | > 100 µM (inactive) | > 100 µM (inactive) | > 100 µM (inactive)
2 | COC1=CC(=O)N(C(=O)C(OC(=O)C2CCCN2C(=O)C2CCCN2C(=O)C(C(C)C)N(C)C(=O)C(NC(=O)C(C(C)C)N(C)C)C(C)C)C(C)C)C1Cc1ccccc1 (configuration not stated) (ξNMe2Val-V[NMeV]PP-X18; configuration not given here) | 0.00189 µM (active) | 0.00242 µM (active) | 0.00109 µM (active) | 0.00103 µM (active) | 0.0014 | 0.00201 µM (active) | 0.00158 µM (active) | 0.000849 µM (active) | 0.00461 µM (active) | 0.0018 µM (active) | 0.00294 µM (active) | < 0.01 µM (active) | 0.0027 µM (active) | 0.00135 µM (active) | 0.000582 µM (active) | 0.000309 µM (active) | 0.000902 µM (active) | 0.00158 µM (active) | 0.00189 µM (active) | 0.000327 µM (active)
3 | Cc1ccc(S(=O)(=O)/N=C2/N(C)CCCS2(=O)=O)cc1 | > 100 µM (inactive) | > 100 µM (inactive) | > 100 µM (inactive) | > 100 µM (inactive) | > 100 | > 100 µM (inactive) | > 100 µM (inactive) | > 100 µM (inactive) | > 100 µM (inactive) | > 100 µM (inactive) | > 100 µM (inactive) | > 100 µM (inactive) |  | > 100 µM (inactive) | > 100 µM (inactive) | > 100 µM (inactive) | > 100 µM (inactive) | > 100 µM (inactive) | > 100 µM (inactive) | > 100 µM (inactive)
4 | Cn1ccnc1CC(C)(O)c1ccccc1 (configuration not stated) | > 100 µM (inactive) | > 100 µM (inactive) | > 100 µM (inactive) | > 100 µM (inactive) | > 100 | > 100 µM (inactive) | > 100 µM (inactive) | > 100 µM (inactive) | > 100 µM (inactive) | > 100 µM (inactive) | > 100 µM (inactive) | > 100 µM (inactive) | > 100 µM (inactive) | > 100 µM (inactive) | > 100 µM (inactive) |  | > 100 µM (inactive) | > 100 µM (inactive) | > 100 µM (inactive) | > 100 µM (inactive)
5 | Cc1cc2nc(N3C(=O)/C(=C/c4ccccc4S)N=C3c3ccccc3)sc2cc1C | 32 µM (inactive) | 27 µM (inactive) | 29 µM (inactive) | 59.7 µM (inactive) | 32.7 | 46.5 µM (inactive) | 18.5 µM (inactive) | 29.2 µM (inactive) | 88.1 µM (inactive) | 32.6 µM (inactive) | 22.4 µM (inactive) | 26.5 µM (inactive) |  | 56.6 µM (inactive) | 18.3 µM (inactive) | 18.8 µM (inactive) | 18.2 µM (inactive) | 26.5 µM (inactive) | 40.8 µM (inactive) | 49.3 µM (inactive)
